Here are results for one compound from publication PMC11530130, “Peripherally restricted PICK1 inhibitor mPD5 ameliorates pain behaviors in murine inflammatory and neuropathic pain models” (JCI Insight, 2024).

SMILES strings stand for the structures. “And” between values parts separate entries of the source, which are not always exact repeats. Equal values may be shown once.

The test system of the experiment is mice, spared nerve injury (SNI) model. As to the kind of experiment: SNI model of neuropathic pain, von Frey, single s.c. dose, male mice day 7. Type of experiment: in vivo, mouse. As for the experimental part: Induction of neuropathic pain (SNI model).
The initial SNI pain experiment (Figure 4A) was performed by Phenotype Expertise, Marseilles, France – Pain and CNS behaviour CRO under supervision of Stéphane Gaillard, PhD (CEO). Surgery was performed on 8-week-old C57BL/6J male mice (Charles River). The spared nerve injury surgery was performed on anaesthetized mice with a buprenorphine […]
solution (0.05 mg/kg) injected s.c. 30 min before surgery (10 μL/g). For surgery, mice were anaesthetised with ketamine (100 mg/kg, i.p.) and xylazine (10 mg/kg, i.p.) (volume 10 µL/g) with 100 μL of 1% xylocaine solution infiltrated at the site of the incision. The distal trifurcation of the sciatic nerve was identified, and the tibial and common peroneal branches were ligated with polypropylene nonabsorbable 6-0 sutures (Ethicon) and 1 mm was cut out, leaving the sural branch intact. The wound was closed with sutures, and the animals were allowed to recover and returned to their cages. Two subcutaneous injections of buprenorphine (0.05 mg/kg) were performed with an 8 to 12 hours delay decreasing pain due to the surgery […]
The remaining SNI pain experiments were performed in-house using the following procedure.
SNI surgery was performed on the left hindleg of C57BL/6J male and female mice (Janvier, France) under 2% isoflurane anaesthesia. Skin on the lateral surface was incised between hip and knee followed by lengthwise division of the biceps femoris muscle leading to exposure of the three branches of the sciatic nerve. Sural branch was left intact, while the peroneal and tibial branches were ligated with a single surgical knot and axotomized distally of the ligation.
Wounds were closed with surgical glue or medical clips and animals were monitored daily for signs of stress or discomfort, but in all cases recovered uneventfully.
Induction of Diabetic neuropathy (STZ model).
Diabetes was induced by a single i.p. injection of […] streptozocin (STZ) solution (100 μL/10 g, Sigma-Aldrich S0130, batch #WXBB7152V) in male seven-week-old C57BL/6J (Charles River) mice. Glycemia was tested before, and seven days after injection. All injected mice had blood glucose concentration >350 mg/dL from day seven and were used for analgesic testing of the compounds from day 14. One mouse had to be euthanized at seven days post injection. This experiment was performed by Phenotype Expertise, Marseilles, France - Pain and CNS behaviour CRO under supervision of Stéphane Gaillard, PhD (CEO).
Induction of cancer induced bone pain (CIBP model).
Osteosarcoma cell line NCTC 2472 (American Type Culture Collection, CCL-11TM) was cultured for two weeks prior to surgery in NCTC-135 medium (Sigma-Aldrich, Denmark) supplemented with sodium hydrogen carbonate and 10% equine serum (Sigma-Aldrich, Denmark). On the day of surgery, cells were washed with PBS and incubated with 3 mL trypsin-EDTA for five min followed by centrifugation (2800 rpm, 3 min). Supernatant was removed, and cell pellet resuspended in PBS to obtain a cell density of 10^7 cells/mL.
Two separate cohorts of female C3H/HeNHsd mice (Envigo, Netherlands) of 7-8 weeks, were anaesthetized with 6.25 mg/kg xylazine (Rompun vet, 20 mg/mL, Bayer, KVP Pharma + Veterinär Produkte GmbH, Germany, Batch: KV02BHF) and 43.75 mg/kg ketamine (Ketaminol vet, 100 mg/mL, MSD Animal Health, AN Boxmeer, The Netherlands, Batch:
A140A01) and received 1.0-1.2% isoflurane (1000 mg/g isoflurane, Attane vet, ScanVet, Piramal Critical Care Ltd., UK, Batch: G123J18B) during surgery. The mouse was placed on a 37 °C heating pad. Both hind legs were shaved, and a small horizontal incision was made under the knee followed by a vertical incision of approximately 0.5 cm until the patellar tendon was exposed. The patellar tendon was moved to the lateral side exposing the distal epiphysis of the femur. A hole was made in the middle of the distal epiphysis by gently pushing a 30 G needle (0.3x12 mm, 30 Gx1/2”, Luer-Lock, CHIRANA T. Injecta, CH30012) through the bone […]
while rotating. […]

For the compound `CCCCCCCCCCCCCC(=O)N(CCOCCOCCC(=O)N[C@@H](Cc1c[nH]cn1)C(=O)N[C@@H](Cc1c[nH]c2ccccc12)C(=O)N[C@@H](CC(C)C)C(=O)N[C@@H](CCCCN)C(=O)N[C@H](C(=O)O)C(C)C)CCOCCOCCC(=O)N[C@@H](Cc1c[nH]cn1)C(=O)N[C@@H](Cc1c[nH]c2ccccc12)C(=O)N[C@@H](CC(C)C)C(=O)N[C@@H](CCCCN)C(=O)N[C@H](C(=O)O)C(C)C` [mPD5, myristoyl-NPEG4-(HWLKV)2], the “effect on mechanical hypersensitivity (PWT)” value (SNI day 7, male mice, s.c. 2 μmol/kg) is given as “no significant effect”. The “duration of significant reduction of mechanical hypersensitivity” value (SNI day 7, male mice, s.c. 10 μmol/kg) was “up to 3 hours”. The “von Frey paw withdrawal threshold, individual animals (Fig 5B)” value (“von Frey paw withdrawal threshold” below) by setting is: (dose group 2, contra, BL) 2 and 1.4 (4×) and 1; (dose group 2, contra, time 0) 1.4 (2×) and 1 (4×); (dose group 2, contra, time 1) 1; (dose group 2, injured side, BL) 2 (2×) and 1.4 (4×); (dose group 2, injured side, time 0) 0.07 (2×) and 0.16 (3×) and 0.4; (dose group 2, injured side, time 1) 0.6 (2×) and 1 (3×) and 1.4. For the same compound, the “von Frey paw withdrawal threshold” value (dose group 10, contra, BL) was 1.4 (5×) and 1; the “von Frey paw withdrawal threshold” value (dose group 10, contra, time 0) is 1 (4×) and 1.4 (2×); the “von Frey paw withdrawal threshold” value (dose group 10, contra, time 1) is 1 (3×) and 1.4 (3×); the “von Frey paw withdrawal threshold” value (dose group 10, injured side, BL) is 1.4 (5×) and 1; the “von Frey paw withdrawal threshold” value (dose group 10, injured side, time 0) was 0.16 (2×) and 0.07 (3×) and 0.4; the “von Frey paw withdrawal threshold” value (dose group 10, injured side, time 1) was 1.4 (2×) and 1. Besides, the “von Frey paw withdrawal threshold” value by setting is: (dose group 50, contra, BL) 1.4 (4×) and 1 (2×); (dose group 50, contra, time 0) 1.4 (3×) and 1 (3×); (dose group 50, contra, time 1) 1.4 (4×) and 1 (2×); (dose group 50, injured side, BL) 1.4 (5×) and 1; (dose group 50, injured side, time 0) 0.07 (2×) and 0.16 (2×) and 0.4 (2×); (dose group 50, injured side, time 1) 1 (3×) and 1.4 (2×) and 2.
